# US20130236964A1, “METHODS, NUCLEIC ACID CONSTRUCTS AND CELLS FOR TREATING NEURODEGENERATIVE DISORDERS” (RAMOT AT TEL-AVIV UNIVERSITY LTD., priority 2002, published 2013)
# How the values were obtained:
# [1] = test system: mBMSc; experiment: Differentiation of mouse BMSc into oligodendrocyte precursors (morphology, survival, A2B5 immunoassay); assay type: cell-based; conditions: for neuronal cell morphology: inducing substance alone; for neuronal cell morphology / effect on cell-morphology (comparison of substances): 24 hr incubation
# Experimental: Mice B5/EGFP (male) were sacrificed by cervical dislocation and were prepared with 70% alcohol solution. […] The cell pellet was resuspended in 1 ml growth medium and diluted to 10 ml. The cells were plated in polystyrene plastic tissue cultures 75 cm^2 flask (Corning Incorporated, Corning, N.Y.) in the “proliferation medium” (see Example 1 hereinabove) for one week. The cells were then transferred to polylysin-coated slide-chambers (3200 cells/well), supplemented “proliferation medium” and incubated for 24 hours at 37° C. The growth medium was then replaced with “oligodendrocytes differentiation media” composed of DMEM supplemented with 2 mM glutamine, SPN, one or more of the following substances: bFGF (10 ng/ml), EGF (10-20 ng/ml), Interlukin-1b (20-40 ng/ml), dbcAMP (1-2 mM), retinoic acid (0.5 or 1 μM), neurotrophin-3 (50 or 100 ng/ml), human platelet derived growth factor (PDGF-AA; 5-20 ng/ml), N2 supplement, triiodothyronien (T3; 40 ng/ml) and ciliary neurotrophic factor (20 ng/ml; CNTF).
# The cultures were incubated at 37° C. for 1, 2 or 6 days (replacing growth media with fresh media every two days) then fixed in 4% PFA. Cells were blocked in 10% FCS solution then incubated with 5 ug/ml anti-A2B5 monoclonal antibody (1:200; R&D systems; 1:200) overnight at 4° C. Cells were then washed twice in PBS for 10 min and incubated with goat-anti-mouse Cy-3 second antibody (Jackson laboratories; 1:500) at room temperature for 20 min. The incidence of cells stained positive for A2B5 (an early marker of oligodendrocyte progenitors) was determined by using a fluorescent microscope equipped with Image ProPlus cell-counting program (Cybernetics).
# [2] = test system: Human BMSCs; experiment: Fatty acid composition of BMSC after fatty acid supplementation of media (lipid extraction, gas chromatography); assay type: cell-based
# Experimental: DHA and AA were diluted in DMEM with 1% horse serum. α-tocopherol was dissolved in ethanol (absolute) before supplementation. FA and α-tocopherol were stored at 4° C. in darkness to prevent their oxidation. Following forty-eight hours, the “additional differentiation medium” was changed to “differentiation medium”, containing DMEM supplemented with SPN, 2 mM L-glutamine, 200 μM butylated hydroxyanisole (BHA), 1 mM dibutyryl cyclic AMP (dbcAMP), 0.5 mM isobutylmethylxanthine (IBMX), 1 μM retinoic acid (RA) and N2 supplement with increasing amounts of DHA (Sigma) and AA (Sigma) (0, 30, 40, 50 and 60 μM). α-tocopherol was added at a concentration of 40 μM to all samples.
# Following removal of medium from the culture dish, adherent cells were washed twice with cold PBS and dried by gentle aspiration with a Pasteur pipette. To each culture dish, 3 ml of a hexane:isopropanol (3:2 vol:vol) (HIP) solvent mixture containing 5 mg/dl butylated hydroxytoluene (BHT) was added. The dishes were gently shaken at room temperature for 10 minutes and the supernates were transferred to methylation tubes. The procedure was repeated with 1.5 ml HIP and the lipid extracts were added to the same tubes. For quantitative experiments which included simultaneous protein determination, lipid extraction was performed with HIP which contained a known amount of heneicosanoic acid (21:0) so as to obtain an internal standard. In addition, for these experiments, known volumes of concentrated cell suspensions were directly extracted with HIP and the protein content was determined from an equal volume of cell concentrates.
# The lipid extracts were evaporated to dryness under a stream of nitrogen. […] The tubes were capped under N2, vortexed and heated at 100° C. for 1 hour. The resulting fatty acid methyl esters (FAME) were extracted into hexane, after acidification of the mixture with 3 drops of 3N HCl, and kept under N2 at −20° C. until analysis.
# Injection was performed with a split/splitless injector kept at 220° C. at a split ratio of 1:30. Detector temperature was 250° C. The column temperature gradient was as follows: 70° C. for 2 min, increased at a rate of 20° C./min to 150° C. where it remained for 5 min, increased at 3° C./min to 210° C. and a final increase at 10° C./min to 230° C. at which it was kept for 3 min until the end of the run. FAME peaks were integrated and computed with the aid of the Varian Star Integrator computer package and were identified by comparison of their retention times with that of authentic standards. Injection of the samples was performed with the aid of a CTC-AS 200 autosampler.
# The amount of individual fatty acids is presented as % weight of the total identified fatty acids and as μg FA/μg protein.
# [3] = test system: hBMSc; experiment: HPLC analysis of dopamine, DOPA and DOPAC in supernatant of differentiating hBMSc; assay type: cell-based, human; conditions: medium supplemented with 56 mM KCl, 10 minutes incubation
# Experimental: hBMSc were cultured as described in Table 6 below. [table] Samples were stabilized by adding 88 μl of 85% orthophosphoric acid and 4.4 mg of metabisulfite to ml sample. Dopamine was extracted by aluminium adsorption (Alumina, Bioanalytical Systems Inc.). Separation of injected samples (50 μl) was effected by isocratic elution on a HPLC-electron chemical detection (HPLC-ECD) system with a reverse-phase C18 column (125×4.6 mm dimension, Hichrom, Inc.) in a monochloroacetate buffer mobile phase. The flow rate was set at 1.2 ml per min, and the oxidative potential of the analytical cell was set at +650 mV. Results were validated by co-elution with dopamine standards under varying buffer conditions and detector settings.
# [4] = +DHA (30 μM), Additional differentiation medium
molecule,measurement,setting,value
Interlukin-1b [IL-1b],neuronal cell morphology,[1],Neuronal cell morphology was observed
"CCCCC/C=C\C/C=C\C/C=C\C/C=C\CCCC(=O)O [AA, arachidonic acid]",optimal concentration in the additional differentiation medium to obtain the best cellular FA profile,[2],40 µM
"CC/C=C\C/C=C\C/C=C\C/C=C\C/C=C\C/C=C\CCC(=O)O [DHA, docosahexaenoic acid]",optimal concentration in the additional differentiation medium to obtain the best cellular FA profile,[2],40 µM
same,20:4 n-6 of BMSC,[2]; [4],8.15 % weight
same,22:6 n-3 of BMSC,[2]; [4],16.70 % weight
same,Sum MUFA of BMSC,[2]; [4],24.24 % weight
same,Sum PUFA of BMSC,[2]; [4],33.08 % weight
same,Sum Saturated fatty acids of BMSC,[2]; [4],42.69 % weight
same,20:4 n-6 of BMSC,"[2]; +DHA, Differentiation medium",5.40 % weight
same,22:6 n-3 of BMSC,"[2]; +DHA, Differentiation medium",13.01 % weight
same,Sum MUFA of BMSC,"[2]; +DHA, Differentiation medium",12.32 % weight
same,Sum PUFA of BMSC,"[2]; +DHA, Differentiation medium",25.71 % weight
same,Sum Saturated fatty acids of BMSC,"[2]; +DHA, Differentiation medium",61.79 % weight
"CCCC(=O)Nc1ncnc2c1ncn2[C@@H]1O[C@@H]2COP(=O)(O)O[C@H]2[C@H]1OC(=O)CCC [dbcAMP, dibutyryl cyclic AMP]",effect on cell-morphology (comparison of substances),[1],most pronounced effect on cell-morphology
same,neuronal cell morphology,[1],Neuronal cell morphology was observed
"N[C@@H](Cc1cc(I)c(Oc2ccc(O)c(I)c2)c(I)c1)C(=O)O [thyroid factor 3, triiodothyronien]",effect on cell-morphology (comparison of substances),[1],most pronounced effect on cell-morphology
"Cc1c(C)c2c(c(C)c1O)CC[C@@](C)(CCC[C@H](C)CCC[C@H](C)CCCC(C)C)O2 [α-Tocopherol, α-tocopherol]",effect on PUFA composition of the neuron-like cells,[2]; 40 μM,did not affect the PUFA composition
"IL-6: IL-6, named only in the result sentence (data not shown)",effect on cell-morphology (comparison of substances),[1],most pronounced effect on cell-morphology
[Cl-].[K+] [KCl],effect on dopamine secretion,[3],further enhanced dopamine secretion
"neurotrophin-3 (protein, UniProt P20783 139-257, looked up, neurotrophin-3, inducing substance in oligodendrocytes differentiation media) Neurotrophin-3: YAEHKSHRGEYSVCDSESLWVTDKSSAIDIRGHQVTVLGEIKTGNSPVKQYFYETRCKEARPVKNGCRGIDDKHWNSQCKTSQTYVRALTSENNKLVGWRWIRIDTSCVCALSRKIGRT",incidence of antibody-labeled A2B5 (comparison of substances),[1],highest incidence
same,effect on cell-morphology (comparison of substances),[1],most pronounced effect on cell-morphology
same,neuronal cell morphology,[1],Neuronal cell morphology was observed
